From patent US20230146455A1, “TREATMENT OF INFLAMMATORY DISEASES WITH PEPTIDES AND PHARMACEUTICAL COMPOSITIONS” (Yuyu Pharma, Inc., priority 2020, published 2023)
Where “and” joins values, the source holds several entries; their conditions need not be identical. Equal values may be shown once. Where a SMILES comes first, the peptide text is derived from it. [ ]: non-standard residue; d: D form. Hyp = O=C(O)[C@@H]1C[C@@H](O)CN1

Test system: CCL5/RANTES
Experiment: Example 9 Luminex, LPS hPBMCs: CCL5/RANTES
Format: cell-based, human
Details: PBMC + LPS(5 ug/ml)
Experimental: Treatment Human PBMCs were pretreated with YY-101, YDE-011 and YDE-043 or reference compound; Xiidra® at various concentration (ranging from 1 nM to 100 uM) for 2 h before stimulation. An equal volume of 0.5% DMSO was used as a vehicle control. Then, the cells were treated with LPS at 5 ug/ml. The supernatants from treated cells were harvested at 24 h and placed in a 96 well for Luminex cytokine & chemokine profiling using a Luminex 200 multiplex assay (Luminex; R&D system, USA).
The main study arm with triplicate wells per group in a 24-well plate: • 1. Blank • 2. PBMC: 0.5% DMSO • 3. PBMC+LPS (5 ug/ml) • 4. PBMC+YY-101 100 uM • 5. PBMC+YY-101 10 uM • 6. PBMC+YY-101 1 uM • 7. PBMC+YY-101 0.1 uM • 8. PBMC+YY-101 0.01 uM • 9. PBMC+LPS (5 ug/ml)+Xiidra®100 uM • 10. PBMC+LPS (5 ug/ml)+Xiidra® 10 uM • 11. PBMC+LPS (5 ug/ml)+Xiidra® 1 uM • 12. PBMC+LPS (5 ug/ml)+Xiidra®0.1 uM • 13. PBMC+LPS (5 ug/ml)+Xiidra®0.01 uM • 14. PBMC+LPS (5 ug/ml)+Xiidra®0.001 uM • 15. PBMC+LPS (5 ug/ml)+YY-101 100 uM • 16. PBMC+LPS (5 ug/ml)+YY-101 10 uM • 17. PBMC+LPS (5 ug/ml)+YY-101 1 uM • 18. PBMC+LPS (5 ug/ml)+YY-101 0.1 uM • 19. PBMC+LPS (5 ug/ml)+YY-101 0.01 uM • 20. PBMC+LPS (5 ug/ml)+YY-101 0.001 uM • 21. PBMC+LPS (5 ug/ml)+YDE-011 100 uM • 22. PBMC+LPS (5 ug/ml)+YDE-011 10 uM • 23. PBMC+LPS (5 ug/ml)+YDE-011 1 uM • 24. PBMC+LPS (5 ug/ml)+YDE-011 0.1 uM • 25. PBMC+LPS (5 ug/ml)+YDE-011 0.01 uM • 26. PBMC+LPS (5 ug/ml)+YDE-011 0.001 uM • 27. PBMC+LPS (5 ug/ml)+YDE-043 100 uM • 28. PBMC+LPS (5 ug/ml)+YDE-043 10 uM • 29. PBMC+LPS (5 ug/ml)+YDE-043 1 uM • 30. PBMC+LPS (5 ug/ml)+YDE-043 0.1 uM • 31. PBMC+LPS (5 ug/ml)+YDE-043 0.01 uM • 32. PBMC+LPS (5 ug/ml)+YDE-043 0.001 uM
Multiplex assay was used to measure 30 cytokines and chemokines. The 1:2, 1:10 and 1:200 diluted cell supernatant and serial dilution of the standard were dispensed into a 96 well plate at 50 ul/well. Then, the pre-mixed cocktail of antibody-coated magnetic beads was dispensed at 50 ul/well and incubated at room temperature for 2 h in a horizontal orbital microplate shaker at 800±500 rpm. The beads were washed using a magnetic device to prevent loss. The biotin-antibody was dispensed in 50 ul of each well and incubated at room temperature for 1 h in a shaker at 800±500 rpm. After washing, streptavidin-PE was added at 50 ul/well and incubated at room temperature for 30 min in a shaker under the same conditions. Finally, after washing, wash buffer (100 ul/well) was added to the plate and incubated in a shaker for 2 min. The Luminex™ 200 setting were set according to the manufacturer's protocol. The data was calculated with a standard five-parameter logistic nonlinear regression analysis of the data (xPonent software 4.2, USA). The levels of cytokine/chemokine are normalized to the live cell counts (1×10^5 cells/mL) and presented as concentrations per mL (pg/mL or ng/mL).

[1] = test article 0.001 uM, single replicates (1st, 2nd, 3rd)
[2] = test article 0.01 uM, single replicates (1st, 2nd, 3rd)
[3] = test article 0.1 uM, single replicates (1st, 2nd, 3rd)
[4] = test article 1 uM, single replicates (1st, 2nd, 3rd)
[5] = test article 10 uM, single replicates (1st, 2nd, 3rd)
[6] = test article 100 uM, single replicates (1st, 2nd, 3rd)

`CC(C)C[C@H](NC(=O)[C@H](CCC(N)=O)NC(=O)CNC(=O)[C@@H]1C[C@@H](O)CN1)C(=O)NCC(=O)O` [YDE-043] (H-[Hyp]GQLG-OH; N-terminus and C-terminus assumed) was tested, and the “Concentration (CCL5/RANTES)” value (test article 0.001 uM, Mean) was 207.1 pg/mL, the “MFI (Bead name: CCL5/RANTES)” value (test article 0.001 uM, Mean) was 469.3 and the “conc/live cell (CCL5/RANTES)” value (test article 0.001 uM, Mean) was 42.0 pg/10^5. For the same compound, the “Concentration (CCL5/RANTES)” value [1] was 199.1 pg/mL and 216.5 pg/mL and 205.7 pg/mL, the “MFI (Bead name: CCL5/RANTES)” value [1] was 445.5 and 497.5 and 465.0 and the “conc/live cell (CCL5/RANTES)” value [1] was 45.3 pg/10^5 and 36.1 pg/10^5 and 44.7 pg/10^5. The “Concentration (CCL5/RANTES)” value (test article 0.01 uM, Mean) was 214.6 pg/mL, the “MFI (Bead name: CCL5/RANTES)” value (test article 0.01 uM, Mean) was 491.8 and the “conc/live cell (CCL5/RANTES)” value (test article 0.01 uM, Mean) was 41.1 pg/10^5. The “Concentration (CCL5/RANTES)” value [2] was 219.3 pg/mL and 212.9 pg/mL and 211.7 pg/mL, the “MFI (Bead name: CCL5/RANTES)” value [2] was 506.0 and 486.5 and 483.0 and the “conc/live cell (CCL5/RANTES)” value [2] was 48.7 pg/10^5 and 32.3 pg/10^5 and 42.3 pg/10^5. For the same compound, the “Concentration (CCL5/RANTES)” value (test article 0.1 uM, Mean) was 215.9 pg/mL, the “MFI (Bead name: CCL5/RANTES)” value (test article 0.1 uM, Mean) was 495.8 and the “conc/live cell (CCL5/RANTES)” value (test article 0.1 uM, Mean) was 40.1 pg/10^5. The “Concentration (CCL5/RANTES)” value [3] was 220.2 pg/mL and 200.1 pg/mL and 227.4 pg/mL, the “MFI (Bead name: CCL5/RANTES)” value [3] was 508.5 and 448.5 and 530.5 and the “conc/live cell (CCL5/RANTES)” value [3] was 44.0 pg/10^5 and 35.7 pg/10^5 and 40.6 pg/10^5. For the same compound, the “Concentration (CCL5/RANTES)” value (test article 1 uM, Mean) was 214.4 pg/mL, the “MFI (Bead name: CCL5/RANTES)” value (test article 1 uM, Mean) was 491.2 and the “conc/live cell (CCL5/RANTES)” value (test article 1 uM, Mean) was 40.7 pg/10^5. The “Concentration (CCL5/RANTES)” value [4] was 218.2 pg/mL and 212.9 pg/mL and 212.2 pg/mL, the “MFI (Bead name: CCL5/RANTES)” value [4] was 502.5 and 486.5 and 484.5 and the “conc/live cell (CCL5/RANTES)” value [4] was 37.6 pg/10^5 and 44.3 pg/10^5 and 40.0 pg/10^5. The “Concentration (CCL5/RANTES)” value (test article 10 uM, Mean) was 202.8 pg/mL, the “MFI (Bead name: CCL5/RANTES)” value (test article 10 uM, Mean) was 456.5 and the “conc/live cell (CCL5/RANTES)” value (test article 10 uM, Mean) was 37.6 pg/10^5. The “Concentration (CCL5/RANTES)” value [5] was 212.9 pg/mL and 193.7 pg/mL and 201.8 pg/mL, the “MFI (Bead name: CCL5/RANTES)” value [5] was 486.5 and 429.5 and 453.5 and the “conc/live cell (CCL5/RANTES)” value [5] was 40.9 pg/10^5 and 35.9 pg/10^5 and 36.0 pg/10^5. The “Concentration (CCL5/RANTES)” value (test article 100 uM, Mean) was 163.0 pg/mL, the “MFI (Bead name: CCL5/RANTES)” value (test article 100 uM, Mean) was 341.8 and the “conc/live cell (CCL5/RANTES)” value (test article 100 uM, Mean) was 25.9 pg/10^5. For the same compound, the “Concentration (CCL5/RANTES)” value [6] was 167.0 pg/mL and 159.0 pg/mL, the “MFI (Bead name: CCL5/RANTES)” value [6] was 353.0 and 330.5 and the “conc/live cell (CCL5/RANTES)” value [6] was 26.9 pg/10^5 and 24.8 pg/10^5.
